The experiment concerns alveolar macrophages. Put plainly: In vivo phagocytic assay of alveolar macrophages 7 days after aseptic lung inflammatory response (intratracheal instillation). Particulars: wild type mice inoculated intratracheally 7 days prior; TNF-α 2.5 μg, HMGB1 10 μg; 2 hours after YFP-E. coli; FIG. 3f. As to the method:
CpG 1668 (10 nM), TNF-α (2.5 μg, Myltenyi Biotec, Paris, France) and HMGB1 (10 μg, Elabscience, Tex., USA) were administrated intra-tracheally under anaesthesia. Mice were kept in a semi-recumbent position for 60 seconds after injection.
Recipient mice were γ-irradiated twice with […] and were reconstituted with 2.5-5×10^6 T cell-depleted bone marrow cells of each relevant donor strain at the indicated ratio. Neomycin (50 mg/ml) was added to the drinking water for the next 4 weeks. Chimeras were used for subsequent experiments 6 to 10 weeks after the reconstitution. Percentage of chimerism was tested during the experiments.
YFP-S. aureus (Strain RN4220 with YFP/erm2 plasmid, kindly gifted by Malone, C. L. et al. 2009 [29]), and YFP-E. coli (strain DH5alpha with p-HG-1 plasmid, kindly gifted by Janssen, W. J. et al 2011 [30]) were grown overnight in Luria broth media with erythromycin 10 μg/mL or 20 μg/mL chloramphenicol, respectively. Fluoresbrite YG carboxylate microspheres (3.64 10^9 beads, […]; Polysciences), YFP-E. coli (OD600=2-3, 75 μL) or YFP-S. aureus (OD600=5-6, 75 μL) were injected i.t. in mice. 2 hours later, the percentages of FITC or YFP^+ macrophages in the lungs were measured by flow cytometry. In vitro phagocytic assay for splenic macrophages

On to TNF-α, for which the “phagocytic function of AM after YFP-E. coli pneumonia” value is “displayed impaired phagocytic function”.

B1: HMGB1: danger-associated molecular pattern protein (Elabscience) administered intra-tracheally (protein, UniProt P63158 1-215, looked up)
High mobility group protein B1: MGKGDPKKPRGKMSSYAFFVQTCREEHKKKHPDASVNFSEFSKKCSERWKTMSAKEKGKFEDMAKADKARYEREMKTYIPPKGETKKKFKDPNAPKRPPSAFFLFCSEYRPKIKGEHPGLSIGDVAKKLGEMWNNTAADDKQPYEKKAAKLKEKYEKDIAAYRAKGKPDAAKKGVVKAEKSKKKKEEEDDEEDEEDEEEEEEEEDEDEEEDDDDE
B1: the “phagocytic function of AM after YFP-E. coli pneumonia” value is “but not those of HMGB1 treated mice, displayed impaired phagocytic function”.

Source of the values: patent publication US20220227849A1, “INHIBITOR OF SURFACE PROTEIN (SP-D) / SIRPA / SHP2 PATHWAY FOR USE IN THE PREVENTION AND/OR TREATMENT OF SECONDARY INFECTION” (UNIVERSITÉ DE NANTES, priority 2019, published 2022).
